According to publication PMC10140010 (Investigational New Drugs, 2023):
Several values for one entry are separate records, joined by “and”; a condition that tells them apart may be missing. Identical values can stand only once.

Columns and labels:
[1] = tested on: phosphorylation of ROS1, AKT, ERK in NIH-3T3 (CD74-ROS1) cells; assay: Western blot of ROS1 and downstream signaling phosphorylation; assay type: cell-based; details: 2 h incubation
Procedure: (§1) In general, the cells were exposed to the drug and were harvested for western blot analysis. SDS-PAGE was used to separate the proteins of interest, which were then transferred to a nitrocellulose (NC) filtration membrane and soaked in a blocking solution [5% non-fat dry milk in tris-buffered saline with Tween 20 (TBST)] for 1 h at room temperature. Thereafter, the membrane was probed overnight with primary antibodies at 4℃ and washed three times with TBST. The corresponding secondary antibody diluent was added, incubated at room temperature for 1 h, and washed 3 times with TBST. After adding the enhanced chemiluminescence developer to the NC filtration membrane, it is developed in the imaging system (ChemiDoc™ XRS^+, BIO-RAD). See Supplementary Table 2 for details of the antibodies used.
(§2) It is reported that ROS1-mediated cell signaling pathways include RAS-RAF-MEK-ERK, PI3K-AKT-mTOR and JAK-STAT3 pathways. According to reports and the differences in the expression of signaling pathway proteins in different cells, the key signaling proteins in different signaling pathways were selected for research.

[2] = tested on: phosphorylation of ROS1, ERK, SHP-1 in Ba/F3 (SLC34A2-ROS1) cells; assay: as above; assay type: cell-based; details: 2 h incubation
Procedure: as §1, §2

OATP1B1 = biological target: T1, OATP1B1 (Homo sapiens, UniProt Q9Y6L6); assay: Uptake substrate investigation in HEK293 cells expressing transporter; assay type: in vitro ADME; details: for Ratio of uptake transit activity / Uptake transport activity, Net value: OATP1B1-293 vs MOCK293
T1 construct: No ESH6G27; host or cells: HEK293
T1 sequence (Q9Y6L6 1-691): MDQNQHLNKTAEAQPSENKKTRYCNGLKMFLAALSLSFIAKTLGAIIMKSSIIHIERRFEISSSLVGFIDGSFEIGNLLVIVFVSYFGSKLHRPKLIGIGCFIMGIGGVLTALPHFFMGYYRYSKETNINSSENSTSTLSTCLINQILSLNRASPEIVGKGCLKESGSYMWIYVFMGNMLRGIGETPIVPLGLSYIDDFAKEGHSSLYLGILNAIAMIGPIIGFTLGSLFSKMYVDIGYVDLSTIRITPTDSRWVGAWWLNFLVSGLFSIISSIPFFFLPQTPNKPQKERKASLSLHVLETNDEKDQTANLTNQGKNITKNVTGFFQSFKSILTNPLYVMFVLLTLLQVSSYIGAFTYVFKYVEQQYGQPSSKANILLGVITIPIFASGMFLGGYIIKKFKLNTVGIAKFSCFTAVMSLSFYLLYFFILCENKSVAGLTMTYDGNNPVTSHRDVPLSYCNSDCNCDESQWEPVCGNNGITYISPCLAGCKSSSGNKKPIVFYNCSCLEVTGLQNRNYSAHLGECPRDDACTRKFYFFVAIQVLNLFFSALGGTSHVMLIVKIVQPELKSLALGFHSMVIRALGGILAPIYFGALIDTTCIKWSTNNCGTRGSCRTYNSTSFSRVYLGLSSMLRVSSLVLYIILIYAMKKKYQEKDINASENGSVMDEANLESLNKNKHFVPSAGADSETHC
From the text: The engineered NIH-3T3 (CD74-ROS1 fusion gene) cells was obtained from Nanjing GenScript Biotechnology Co., Ltd. The engineered Ba/F3 (SLC34A2-ROS1 fusion gene) cell line was obtained from Kyinno Biotechnology (Beijing) Co., Ltd. The HCC-78 (SLC34A2-ROS1 fusion gene) cell line was purchased from Shanghai Hongshun Biotechnology Co., Ltd. The engineered NIH-3T3 (CD74-ROS1 fusion gene) cells was obtained from Nanjing GenScript Biotechnology Co., Ltd. The engineered HEK293 cell lines with OATP1B1 (Lot. No ESH6G27), OATP1B3 (Lot. No ESH7G27), OCT2 (Lot. No ESH9G27), OAT1 (Lot. No ESHCG27), OAT3 (Lot. […] No ESHDG27) were purchased from GenoMembrane and validated using the specific substrate for each transporter. All cells were cultured at 37℃ in a 5% CO2 atmosphere. Cell culture reagents were obtained from Life Technologies, Inc. See Supplemental Table 1 for details on the source of the cell lines and the media used.

AUR2 = AUR2 (Homo sapiens, UniProt O14965); assay: Z'-LYTE kinase selectivity; assay type: biochemical
P-gp = biological target: T2, P-gp (Homo sapiens, UniProt P08183); assay: ABC efflux transporter inhibitor test on Caco-2 cells (digoxin efflux); assay type: in vitro ADME
T2 construct: endogenous in cells; host or cells: Caco-2

[3] = MOCK293, test substrate 10 μM, no inhibitor, pre-test
[4] = OATP1B1-293, test substrate 10 μM, no inhibitor, pre-test
[5] = test substrate 10 μM, no inhibitor, pre-test
[6] = human, Caco-2 cells, probe digoxin (5 µM), read-out: Exhaust inhibition rate (%)

T2 sequence (P08183 whole entry): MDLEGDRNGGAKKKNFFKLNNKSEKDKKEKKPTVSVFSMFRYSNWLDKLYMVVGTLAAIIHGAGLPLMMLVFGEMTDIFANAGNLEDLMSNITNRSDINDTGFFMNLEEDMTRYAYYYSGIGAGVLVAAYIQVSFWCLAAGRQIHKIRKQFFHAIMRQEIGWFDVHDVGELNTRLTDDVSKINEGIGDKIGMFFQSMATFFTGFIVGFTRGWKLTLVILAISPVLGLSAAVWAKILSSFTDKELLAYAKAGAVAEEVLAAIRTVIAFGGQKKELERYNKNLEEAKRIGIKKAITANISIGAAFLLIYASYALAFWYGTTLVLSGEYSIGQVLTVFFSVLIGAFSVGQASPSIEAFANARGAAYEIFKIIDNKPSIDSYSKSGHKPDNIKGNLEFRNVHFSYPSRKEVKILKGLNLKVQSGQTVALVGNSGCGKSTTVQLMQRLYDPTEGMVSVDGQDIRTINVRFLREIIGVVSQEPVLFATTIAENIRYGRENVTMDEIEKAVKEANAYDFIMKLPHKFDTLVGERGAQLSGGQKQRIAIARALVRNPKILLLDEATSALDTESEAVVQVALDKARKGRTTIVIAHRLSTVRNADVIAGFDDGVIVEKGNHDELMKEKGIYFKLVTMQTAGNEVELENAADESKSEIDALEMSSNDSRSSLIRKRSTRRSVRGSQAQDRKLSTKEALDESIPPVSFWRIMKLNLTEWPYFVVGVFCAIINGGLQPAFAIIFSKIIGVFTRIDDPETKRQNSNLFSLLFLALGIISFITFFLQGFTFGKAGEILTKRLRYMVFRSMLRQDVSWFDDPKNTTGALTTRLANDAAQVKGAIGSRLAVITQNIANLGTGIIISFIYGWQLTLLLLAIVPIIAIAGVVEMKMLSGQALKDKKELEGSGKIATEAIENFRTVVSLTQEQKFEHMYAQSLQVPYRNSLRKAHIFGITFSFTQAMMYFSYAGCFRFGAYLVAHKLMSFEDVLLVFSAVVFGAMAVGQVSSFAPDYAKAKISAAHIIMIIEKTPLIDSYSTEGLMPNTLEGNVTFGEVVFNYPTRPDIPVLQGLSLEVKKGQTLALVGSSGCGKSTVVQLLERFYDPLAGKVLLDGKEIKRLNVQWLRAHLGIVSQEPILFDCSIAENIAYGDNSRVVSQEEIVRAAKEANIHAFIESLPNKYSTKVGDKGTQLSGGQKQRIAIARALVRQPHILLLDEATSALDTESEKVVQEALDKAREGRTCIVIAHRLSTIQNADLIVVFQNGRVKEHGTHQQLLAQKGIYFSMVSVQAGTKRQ
Sequence of AUR2 (O14965 whole entry): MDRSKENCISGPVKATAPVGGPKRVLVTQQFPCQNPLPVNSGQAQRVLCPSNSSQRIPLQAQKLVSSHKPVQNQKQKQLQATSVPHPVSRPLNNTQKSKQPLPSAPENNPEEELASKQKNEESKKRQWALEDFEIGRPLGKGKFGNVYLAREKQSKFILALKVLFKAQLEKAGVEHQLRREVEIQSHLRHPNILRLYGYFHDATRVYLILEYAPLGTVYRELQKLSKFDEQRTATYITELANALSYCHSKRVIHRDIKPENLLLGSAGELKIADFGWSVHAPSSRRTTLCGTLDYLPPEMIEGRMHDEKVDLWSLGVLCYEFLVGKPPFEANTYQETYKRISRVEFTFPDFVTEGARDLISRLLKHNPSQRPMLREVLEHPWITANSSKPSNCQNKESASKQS

Structure (SMILES): COc1cc(N2CCC3(CCN(C)CC3)CC2)ccc1Nc1ncc(Cl)c(Nc2ccccc2P(C)(C)=O)n1 [Iruplinalkib]
- phosphorylation levels of ROS1, AKT, ERK [1]: inhibited
- phosphorylation levels of ROS1, ERK, SHP-1 [2]: inhibited
- uptake transport activity ratio, OATP1B1 (OATP1B1; 30 µM, 3 µM, 0.3 µM, HEK293): less than two
- uptake substrate of OATP1B1 (OATP1B1; HEK293): not an uptake substrate
- Uptake transport activity, Mean (OATP1B1; MOCK293 (OATP1B1 set), 0.3 μM, Suppl. Table 11): 7.468 pmol/mg protein/min
- Uptake transport activity, Mean (OATP1B1; MOCK293 (OATP1B1 set), 3 μM, Suppl. Table 11): 54.18 pmol/mg protein/min
- Uptake transport activity, Mean (OATP1B1; MOCK293 (OATP1B1 set), 30 μM, Suppl. Table 11): 601.2 pmol/mg protein/min
- Uptake transport activity, Mean (OATP1B1; [3]): 102.0 pmol/mg protein/min
- Uptake transport activity, Repeat 1 / Repeat 2 (OATP1B1; [3]): 100.4 pmol/mg protein/min and 103.6 pmol/mg protein/min
- Uptake transport activity, Mean (OATP1B1; OATP1B1-293, 0.3 μM, Suppl. Table 11): 8.227 pmol/mg protein/min
- Uptake transport activity, Mean (OATP1B1; OATP1B1-293, 3 μM, Suppl. Table 11): 46.74 pmol/mg protein/min
- Uptake transport activity, Mean (OATP1B1; OATP1B1-293, 30 μM, Suppl. Table 11): 564.7 pmol/mg protein/min
- Uptake transport activity, Mean (OATP1B1; [4]): 55.08 pmol/mg protein/min
- Uptake transport activity, Repeat 1 / Repeat 2 (OATP1B1; [4]): 50.74 pmol/mg protein/min and 59.41 pmol/mg protein/min
- Ratio of uptake transit activity (OATP1B1; 0.3 μM, Suppl. Table 11): 1.10
- Uptake transport activity, Net value (OATP1B1; 0.3 μM, Suppl. Table 11): 0.759 pmol/mg protein/min
- Ratio of uptake transit activity (OATP1B1; 3 μM, Suppl. Table 11): 0.86
- Uptake transport activity, Net value (OATP1B1; 3 μM, Suppl. Table 11): -7.440 pmol/mg protein/min
- Ratio of uptake transit activity (OATP1B1; 30 μM, Suppl. Table 11): 0.94
- Uptake transport activity, Net value (OATP1B1; 30 μM, Suppl. Table 11): -36.47 pmol/mg protein/min
- Ratio of uptake transit activity (OATP1B1; [5]): 0.54
- Uptake transport activity, Net value (OATP1B1; [5]): -46.9 pmol/mg protein/min
- IC50 (AUR2): 1080 ± 106 nM
- P-gp inhibitor (P-gp; Caco-2): strong inhibitor
- inhibition at 0.1 μM (P-gp; [6]): -30.9%
- inhibition at 0.3 μM (P-gp; [6]): 3.97%
- inhibition at 1 μM (P-gp; [6]): -13.2%
- inhibition at 3 μM (P-gp; [6]): -19.1%
- inhibition at 10 µM (P-gp; [6]): 89.8%
- inhibition at 30 μM (P-gp; [6]): 98.7%
